Target: T1, APOL1 (Homo sapiens, UniProt O14791)
T1 sequence (O14791 1-398): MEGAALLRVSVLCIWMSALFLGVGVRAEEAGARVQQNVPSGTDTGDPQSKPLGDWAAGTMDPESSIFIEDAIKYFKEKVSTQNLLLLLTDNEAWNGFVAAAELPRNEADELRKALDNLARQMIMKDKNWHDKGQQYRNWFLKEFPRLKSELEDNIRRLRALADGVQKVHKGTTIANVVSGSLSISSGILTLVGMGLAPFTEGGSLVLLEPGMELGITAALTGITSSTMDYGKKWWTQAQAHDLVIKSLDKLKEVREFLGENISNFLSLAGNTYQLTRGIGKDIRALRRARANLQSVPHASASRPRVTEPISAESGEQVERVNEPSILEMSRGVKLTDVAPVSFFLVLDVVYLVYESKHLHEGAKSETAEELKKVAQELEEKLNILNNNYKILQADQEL
Experiment: MultiTox-Fluor Multiplex Cytotoxicity Assay, tet-inducible APOL1 T-REx-HEK293 cells (G0, G1 or G2 clone not specified for Table 20)
Type: cell-based
Conditions: tet-induced, 24 hours with compound, ratio of dead to live cells, read-out: IP50 (i.e., IC50 for cell proliferation)
Protocol: Human embryonic kidney (HEK293) cell lines containing a tet-inducible expression system (T-REx™; Invitrogen, Carlsbad, CA) and Adeno-associated virus site 1 pAAVS1-Puro-APOL1 G0 or pAAVS1-Puro-APOL1 G1 or pAAVS1-Puro-APOL1 G2 Clones G0 DC2.13, G1 DC3.25, and G2 DC4.44 were grown in a T-225 flask at ˜90% confluency in cell growth media (DMEM, 10% Tet-free FBS, 2 mM L-glutamine, 100 Units/mL penicillin-streptomycin, 5 μg/mL blasticidin S HCl, 1 μg/mL puromycin dihydrochloride). Cells were washed with DPBS and then trypsinized to dissociate from the flask. Media was used to quench the trypsin, cells were then pelleted at 200 g and resuspended in fresh cell assay media (DMEM, 2% Tet-free FBS, 2 mM L-glutamine, 100 Units/mL penicillin-streptomycin). Cells were counted and diluted to 1.17×10^6 cells/mL. 20 μL of cells (23,400/well) were dispensed in every well of a 384-well Poly-D-Lysine coated plate using the Multidrop dispenser. The plates were then incubated at room temperature for one hour.
Tetracycline is needed to induce APOL1 expression. 1 mg/mL tet stock in water was diluted to 250 ng/mL (5×) in cell assay media. 60 μL of cell assay media (no tet control) was dispensed in columns 1 and 24, and 60 μL of 5× tet in 384-PP-round bottom plate was dispensed in columns 2 to 23 with the Multidrop dispenser.
Assay ready plates from the Global Compound Archive were ordered using template 384_APOL1Cell_DR10n2_50 uM_v3. Compounds were dispensed at 200 nL in DMSO. The final top concentration was 10 μM with a 10 point 3-fold dilution in duplicate in the MultiTox assay.
20 μL was transferred from the 5× tet plate to the ARP and mixed, then 5 μL of 5× tet and the compounds were transferred to the cell plate and mixed using the Bravo. The cell plate was placed in the humidified 37° C. 5% CO2 incubator for 24 hours.
The MultiTox-Fluor Multiplex Cytotoxicity Assay was performed in accordance with the manufacturer's protocol. After cells were incubated with tet and compound for 24 hours, 25 μL of 1× MultiTox reagent was added to each well using the Multidrop dispenser; the plates were placed on a plate shaker (600 rpm) for 2 minutes, then centrifuged briefly and placed back in the 37° C. incubator for 30 minutes. The cell viability (excitation: 400 nm, emission: 486 nm) and cytotoxicity (excitation: 485 nm, emission: 535 nm) were read using the EnVision plate reader. A ratio of dead (cytotoxicity) to live (viability) cells was reported. Data was exported and analyzed in Genedata. Data was normalized using percent of control, no tet (100% viability), and 50 ng/mL tet treated (0% viability), and fit using Smart Fit settings in Genedata.

**Q.** `C[C@H]1CC2(CCN1Cc1cnn(CCS(C)(=O)=O)c1)CC(O)c1ccc(Cl)cc12` (single isomer, unassigned) [Compound 307, (2′S)-5-chloro-2′-methyl-1′-[[1-(2-methylsulfonylethyl)pyrazol-4-yl]methyl]spiro[indane-3,4′-piperidine]-1-ol] was tested. Which IC50 did it give?
**A.** ≤ 50 nM

**Q.** How did the IC50 turn out when `CS(=O)(=O)CCn1cc(CN2CCC3(CC2)CNc2ccc(Cl)cc23)cn1` [Compound 305, 5-chloro-1′-[[1-(2-methylsulfonylethyl)pyrazol-4-yl]methyl]spiro[indoline-3,4′-piperidine]] was run?
**A.** ≥ 500 nM

**Q.** `Cc1cccc2c1C(O)CC21CCN(Cc2cnn(CCS(C)(=O)=O)c2)[C@@H](C)C1` (stereo partly drawn) [Compound 309, (2′S)-2′,4-dimethyl-1′-((1-(2-(methylsulfonyl)ethyl)-1H-pyrazol-4-yl)methyl)-2,3-dihydrospiro[indene-1,4′-piperidin]-3-ol] was tested. Which IC50 did it give?
**A.** 50 to 500 nM

**Q.** Which IC50 does the source give for `C[C@H]1C[C@@]2(CCN1Cc1cn(CCCn3ccc(=O)[nH]c3=O)nn1)OCCc1ccc(Cl)cc12` [Compound 179] here?
**A.** ≤ 50 nM

**Q.** Which IC50 does the source give for `Cc1nn(CCO)cc1Cn1cc(CN2CC[C@]3(C[C@@H]2C)OCCc2ccc(Cl)cc23)nn1` [Compound 170] here?
**A.** ≤ 50 nM

**Q.** For `NC(=O)C1OC2(CCN(Cc3cnn(-c4ccccc4)c3)CC2)c2cc(Cl)ccc21` (stereo not drawn) [Compound 191, 5-chloro-1′-[(1-phenylpyrazol-4-yl)methyl]spiro[1H-isobenzofuran-3,4′-piperidine]-1-carboxamide], which IC50 is on record?
**A.** ≤ 50 nM

**Q.** With `CNC(=O)C1OC2(CCN(Cc3cnn(C(C)C)c3)CC2)c2cc(Cl)ccc21` (stereo not drawn) [Compound 298, 6-chloro-1′-((1-isopropyl-1H-pyrazol-4-yl)methyl)-N-methyl-3H-spiro[isobenzofuran-1,4′-piperidine]-3-carboxamide] as the molecule, how does the IC50 read?
**A.** ≥ 500 nM

**Q.** How did the IC50 turn out when `C[C@H]1C[C@@]2(CCN1Cc1cnn(CCO)c1)OCCc1ccc(Cl)cc12` [Compound 103] was run?
**A.** ≤ 50 nM

**Q.** `CC(CO)(CO)Cn1cc(CN2CCC3(CC2)C(=O)Nc2ccc(Cl)cc23)nn1` [Compound 41, 5-chloro-1′-[[1-[3-hydroxy-2-(hydroxymethyl)-2-methyl-propyl]triazol-4-yl]methyl]spiro[indoline-3,4′-piperidine]-2-one] was tested. Which IC50 did it give?
**A.** 50 to 500 nM

**Q.** Which IC50 does the source give for `CNC(=O)C1OC2(CCN(Cc3cnn(CCS(C)(=O)=O)c3)CC2)c2cc(Cl)ccc21` (stereo not drawn) [Compound 210, 5-chloro-N-methyl-1′-[[1-(2-methylsulfonylethyl)pyrazol-4-yl]methyl]spiro[1H-isobenzofuran-3,4′-piperidine]-1-carboxamide] here?
**A.** 50 to 500 nM

**Q.** How did the IC50 turn out when `C[C@H]1C[C@@]2(CCN1Cc1cnn(CCS(C)(=O)=O)c1)OCCc1ccc(Cl)cc12` [Compound 88, (1R,2′S)-7-chloro-2′-methyl-1′-[[1-(2-methylsulfonylethyl)pyrazol-4-yl]methyl]spiro[isochromane-1,4′-piperidine]] was run?
**A.** ≤ 50 nM

**Q.** For `Cn1cc(CN2CCC3(CC2)C(=O)Nc2ccc(CC(F)F)cc23)cn1` [Compound 34], which IC50 is on record?
**A.** ≥ 500 nM

**Q.** How did the IC50 turn out when `Cc1ccc2c(c1)C1(CCN(Cc3cnn(CCS(C)(=O)=O)c3)CC1)C(=O)N2` [Compound 23] was run?
**A.** 50 to 500 nM

**Q.** With `Cc1ccc(Cn2cc(CN3CC[C@]4(C[C@@H]3C)OCCc3ccc(Cl)cc34)nn2)c(=O)[nH]1` [Compound 174] as the molecule, how does the IC50 read?
**A.** 50 to 500 nM

**Q.** How did the IC50 turn out when `C[C@H]1CC2(CCN1Cc1cnn(-c3ccccc3)c1)OC(C(N)=O)c1ccc(Cl)cc12` (single isomer, unassigned) [Compound 293, (2′S)-5-chloro-2′-methyl-1′-[(1-phenylpyrazol-4-yl)methyl]spiro[1H-isobenzofuran-3,4′-piperidine]-1-carboxamide] was run?
**A.** 50 to 500 nM

**Q.** `CS(=O)(=O)c1ccc(CN2CCC3(CC2)OC(C(N)=O)c2ccc(Cl)cc23)c(F)c1` (stereo not drawn) [Compound 224] was tested. Which IC50 did it give?
**A.** ≥ 500 nM

**Q.** `Cc1cc(CN2CCC3(CC2)OC(C(N)=O)c2ccc(Cl)cc23)ccn1` (stereo not drawn) [Compound 261] was tested. Which IC50 did it give?
**A.** 50 to 500 nM

**Q.** With `O=C1N(CCO)c2ccc(Cl)cc2C12CCN(Cc1cn[nH]c1)CC2` [Compound 46] as the molecule, how does the IC50 read?
**A.** 50 to 500 nM

**Q.** Which IC50 does the source give for `NC(=O)C1OC2(CCN(Cc3cnc4c(c3)COCC4)CC2)c2cc(Cl)ccc21` (stereo not drawn) [Compound 238] here?
**A.** ≥ 500 nM

**Q.** `CS(=O)(=O)CCn1cc(CN2CCC3(CC2)C(=O)Nc2c(Cl)cc(Cl)cc23)cn1` [Compound 36] was tested. Which IC50 did it give?
**A.** 50 to 500 nM

**Q.** For `Cc1ccc2c(c1)[C@]1(CCN(Cc3cnn(CC(C)(CO)CO)c3)[C@@H](C)C1)OCC2` [Compound 100], which IC50 is on record?
**A.** ≤ 50 nM

**Q.** How did the IC50 turn out when `CC(C)(C)c1ncc(CN2CCC3(CC2)OC(C(N)=O)c2ccc(Cl)cc23)cn1` (stereo not drawn) [Compound 267] was run?
**A.** ≥ 500 nM

**Q.** With `C[C@H]1C[C@@]2(CCN1Cc1cn(Cc3ncc(C(N)=O)s3)nn1)OCCc1ccc(Cl)cc12` [Compound 182] as the molecule, how does the IC50 read?
**A.** ≤ 50 nM

**Q.** `Cn1cc(CN2CCC3(CC2)OC(C(N)=O)c2ccc(Cl)cc23)c(=O)n(C)c1=O` (stereo not drawn) [Compound 271] was tested. Which IC50 did it give?
**A.** ≥ 500 nM

**Q.** For `CN1C(=O)C2(CCN(Cc3cn[nH]c3)CC2)c2cc(Cl)ccc21` [Compound 38], which IC50 is on record?
**A.** 50 to 500 nM

**Q.** `C[C@H]1C[C@@]2(CCN1Cc1cn(CCO)nn1)OCCc1ccc(Cl)cc12` [Compound 141, 2-[4-[[(1R,2′S)-7-chloro-2′-methyl-spiro[isochromane-1,4′-piperidine]-1′-yl]methyl]triazol-1-yl]ethanol] was tested. Which IC50 did it give?
**A.** ≤ 50 nM

**Q.** `C[C@H]1C[C@@]2(CCN1Cc1cn(Cc3cn(C4COC4)nn3)nn1)OCCc1ccc(Cl)cc12` [Compound 181] was tested. Which IC50 did it give?
**A.** ≤ 50 nM

**Q.** For `CS(=O)(=O)c1ccc(CN2CCC3(CC2)OC(C(N)=O)c2ccc(Cl)cc23)cc1` (stereo not drawn) [Compound 223], which IC50 is on record?
**A.** 50 to 500 nM

**Q.** For `C[C@H]1C[C@@]2(CCN1Cc1cnn(C(C)(C)C)c1)OCCc1ccc(Cl)cc12` [Compound 120], which IC50 is on record?
**A.** 50 to 500 nM

**Q.** Which IC50 does the source give for `C[C@H]1C[C@@]2(CCN1Cc1cn(Cc3ncc4c(n3)CCOC4)nn1)OCCc1ccc(Cl)cc12` [Compound 177] here?
**A.** 50 to 500 nM

**Q.** For `NC(=O)C1OC2(CCN(Cc3c[nH]c4nccnc34)CC2)c2cc(Cl)ccc21` (stereo not drawn) [Compound 232], which IC50 is on record?
**A.** ≤ 50 nM

**Q.** `C[C@H]1C[C@@]2(CCN1Cc1cn(CC(=O)Nc3cn[nH]c3)nn1)OCCc1ccc(Cl)cc12` [Compound 186] was tested. Which IC50 did it give?
**A.** ≤ 50 nM

**Q.** Which IC50 does the source give for `Cc1nc(Cn2cc(CN3CC[C@]4(C[C@@H]3C)OCCc3ccc(Cl)cc34)nn2)sc1C(N)=O` [Compound 165] here?
**A.** ≤ 50 nM

**Q.** How did the IC50 turn out when `CC1COC2(CCN(Cc3cnn(C)c3)CC2)c2ccccc21` (stereo not drawn) [Compound 89, 4-methyl-1′-[(1-methylpyrazol-4-yl)methyl]spiro[isochromane-1,4′-piperidine]] was run?
**A.** ≥ 500 nM

**Q.** For `COC(=O)c1ccc(CN2CCC3(CC2)OC(C(N)=O)c2ccc(Cl)cc23)nc1` (stereo not drawn) [Compound 250], which IC50 is on record?
**A.** 50 to 500 nM

**Q.** `Cc1ccc2c(c1)C1(CCN(Cc3cnn(C)c3)CC1)OC2` [Compound 286, 5-methyl-1′-[(1-methylpyrazol-4-yl)methyl]spiro[1H-isobenzofuran-3,4′-piperidine]] was tested. Which IC50 did it give?
**A.** ≥ 500 nM

**Q.** With `C[C@H]1C[C@@]2(CCN1Cc1cn(CC(O)C(C)(C)O)nn1)OCCc1ccc(Cl)cc12` (stereo partly drawn) [Compound 157] as the molecule, how does the IC50 read?
**A.** ≤ 50 nM

**Q.** How did the IC50 turn out when `Cc1nc(CN2CCC3(CC2)OC(C(N)=O)c2ccc(Cl)cc23)co1` (stereo not drawn) [Compound 221] was run?
**A.** ≥ 500 nM

**Q.** With `C[C@H]1C[C@@]2(CCN1Cc1cn(CC3(C(N)=O)CCOCC3)nn1)OCCc1ccc(Cl)cc12` [Compound 184] as the molecule, how does the IC50 read?
**A.** ≤ 50 nM

**Q.** For `Cc1ccc2c(c1)C1(CCN(Cc3ccccc3)C(C)C1)OCC2` (stereo not drawn) [Compound 137], which IC50 is on record?
**A.** ≥ 500 nM

**Q.** Which IC50 does the source give for `NC(=O)Cn1cc(CN2CCC3(CC2)OC(C(N)=O)c2ccc(Cl)cc23)cn1` (stereo not drawn) [Compound 285] here?
**A.** 50 to 500 nM

**Q.** For `Cc1ccc(CN2CCC3(CC2)OC(C(N)=O)c2ccc(Cl)cc23)cn1` (stereo not drawn) [Compound 227], which IC50 is on record?
**A.** ≤ 50 nM

From patent US20250195483A1, “SPIRO PIPERIDINE DERIVATIVES AS INHIBITORS OF APOL1 AND METHODS OF USING SAME” (Vertex Pharmaceuticals Incorporated, priority 2022, published 2025)
